Legend:
PDE6 enzyme = conditions: read-out: METHOD 2: PDE6 IC50; Table F, WO2004096810 examples
Excerpt: Method 2: Human Retina PDE6 Enzyme Inhibition Scintillation Proximity Assay (SPA)
The inhibition of PDE6 enzyme activity by a test compound can be measured in accordance with the in vitro assay of Method 1, but instead using semi-purified PDE6 enzyme isolated from human, bovine or canine retina in place of PDE5 enzyme. […] [3H]GMP binds to yttrium silicate SPA beads and is detected by scintillation counting. • PDE6 Purification: PDE6 can be isolated and purified from the following: Soluble rod PDE6/Rod Outer Segment PDE6 from Bovine eyes (Charles River Ltd, France); Cone PDE6 from Canine eyes (LAS); or Soluble rod and Cone PDE6 from Human eyes (I.I.A.M.).
While supporting the eye with the cornea uppermost, make a small incision through the conjunctiva below the level of the iris. The incision should be sufficient to allow the humor to escape through the cut. Using fine scissors, cut around the cornea to enable it to be lifted off as a flap. Using a small hook, engage the lens and gently pull it out of orbit, taking care not to pull out the retina at the same time. Allow the retina to drop down of its own accord to the base of the orbit.
Lift the retina with care and locate the optic nerve. Cut through the optic nerve and transfer the retina to a small dish containing a few ml of homogenisation buffer. Gently float the retina out on the surface of the buffer and remove any obvious pigmented material from the iris. Place the retina in a second dish with clean buffer to remove last traces of pigment and then transfer to a 50 ml Corning Costar centrifuge tube (Sigma) and keep on ice. • PDE6 Isolation and Purification from Retina: Allow 2 mls of the homogenisation buffer per bovine retina and 1 ml per retina for dog and human. Homogenise using hand-held homogeniser 3×5 second bursts cooling on ice between each burst. Filter homogenate through two layers of surgical gauze. Spin at 100,000 g for 60 minutes at 4° C. […] Run through FPLC (Pharmacia FPLC LKB/FRAC-100, Pharmacia) or aliquot and store in liquid nitrogen as needed. Method 2A: Alternative Human Retina PDE6 Enzyme Inhibition Scintillation Proximity Assay (SPA)

[1] = Method 11: Single Dose Pharmacokinetics and Oral Bioavailability in Male Sprague-Dawley Rat; assay type: in vivo; conditions: mean; for AUC(0-inf) / clearance / half-life / Vd / Cmax / Tmax: plasma, 2 mg/kg; for Vd: read-out: Vdss; for F: po 2 mg/kg vs iv 2 mg/kg
Description: Repeat testing is recommended in order to establish a valid assay test result. P. Pharmacokinetic/Pharmacodynamic Study Method 11: Single Dose Pharmacokinetics and Oral Bioavailability in Male Sprague-Dawley Rat Following Intravenous and Oral Administration
An in vivo model can be used to evaluate the single dose pharmacokinetic properties and absolute oral bioavailability of a test compound. As described more specifically below, a test compound is administered to Sprague-Dawley (SD) rats either intravenously or orally in a crossover study design and the resulting pharmacokinetic properties and oral bioavailability are measured.
Male rats are administered a 2.0 mg/kg dose orally (n=2) by gavage as a suspension (0.5% methylcellulose/0.1% Tween 80 in distilled water). After a 72 hour wash-out periond, the same rats were administered 2.0 mg/kg dose bolus intravenously (n=2) as a solution (70% PEG 400/20% 0.05 M Citrate Buffer pH 3/10% Ethanol). Serial blood samples (for plasma) are collected from each rat over a 24 hour post dose for each route. […] Pharmacokinetic parameters of a test compound are determined from the plasma concentration-time data using non-compartmental methods. • LC/MS/MS: 1) Column: Hyperso; AQUASIL C-18 2.1×20 mm, 3.0 μm; 2) Mobile phase: Aqueous Water with 0.1% Formic Acid, Orgainic: Acetonitrile; Ionization: +ESI (API 4000). MRM: m/z 494.4→m/z 394.0 (Example 261 in WO2004096810), m/z 509.44→m/z 409.80 (Example 263 in WO2004096810), m/z 495.33→m/z 395.20 (Example 262 in WO2004096810). The detection limits are 0.12 ng/mL (Example 261 in WO2004096810), 1.3 ng/mL (Example 263 in WO2004096810) and 0.11 ng/mL (Example 262 in WO2004096810).
Watson (Version 6.4.0.04) is used to calculate mean test compound concentrations, corresponding standard deviations (SD), and percent coefficient of variation (% CV), and to estimate pharmacokinetic parameters (derived by noncompartmental methods) and associated statistics (mean, SD & CV %) if applicable. (Since n=2, no SD or CV calculated ?). Concentrations below the limit of quantitation (BLQ) are reported as zero (0) and are used in the evaluation of mean concentrations and the estimation of AUC. The peak plasma concentration (Cmax) and the time to reach peak concentration (tmax) are recorded directly from individual plasma concentration-time profiles. The terminal log-linear phase of the plasma concentration-time curve is identified by linear regression of data points. The terminal half-life (t1/2) is calculated as ln(2) divided by absolute value of the slope of the terminal log-linear phase. The area under the plasma concentration-time curve from time zero to time of the last quantifiable concentration (t) [AUC(0-t)] is determined using the linear trapezoidal method. The area under the plasma concentration-time curve from time zero to infinity [AUC(0-∞)] is determined as AUC(0-t) plus the extrapolated area. The extrapolated area is determined by dividing the last observed plasma concentration by the slope of the terminal log-linear phase. Systemic plasma clearance (CL) is calculated as dose/AUC(0-∞) while the volume of distribution at steady state (Vdss) is calculated as CL×MRT, where MRT (mean residence time) is defined as AUMC(0-∞)/AUC(0-∞). The absolute PO bioavailability (F) is calculated as a ratio of the dose-normalized AUC(0-∞) of individual animal after PO administration to the dose-normalized AUC(0-∞) of individual animal after IV administration given the crossover study design.

SMILES	IC50 (PDE6 enzyme) [nM]	AUC(0-inf) ([1]; iv) [ng·h/mL]	clearance ([1]; iv) [mL/min/kg]	half-life ([1]; iv) [h]	Vd ([1]; iv) [L/kg]	AUC(0-inf) ([1]; po) [ng·h/mL]	Cmax ([1]; po) [ng/mL]	Tmax ([1]; po) [h]	half-life ([1]; po) [h]	F [1] [%]
CCc1nn(CCOCC(F)(F)F)c2c(Nc3cc(C)ncn3)nc(N3CCC(C(=O)O)CC3)nc12 [WO2004096810 Example 263]	25.3	555	60.1	4.5	5.07	329	102	0.33	3.8	60.0
Cc1ccnc(Nc2nc(N3CCC(C(=O)O)CC3)nc3c(C)nn(CCOCC(F)(F)F)c23)c1 [WO2004096810 Example 261]	58.8	19000	1.75	6.4	0.564	20000	2350	0.67	6.7	105
Cc1cc(Nc2nc(N3CCC(C(=O)O)CC3)nc3c(C)nn(CCOCC(F)(F)F)c23)ncn1 [WO2004096810 Example 262]	47.7	440	76.3	5.5	6.11	280	87.1	0.67	3.4	63.9

Reference: patent publication US8518956B2, “1-(1-(2-ethoxyethyl)-3-ethyl-7-(4-methylpyridin-2-ylamino)-1H-pyrazolo[4,3-d]pyrimidin-5-yl) piperidine-4-carboxylic acid and salts thereof” (priority 2005, dated 2013)
